# Reference: PubChem BioAssay (NCI)
#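 Five compound concentrations were applied to cells in 96-well plates for 48 hours; endpoints were derived by simple linear interpolation of the resulting dose-response curve. At the GI50, growth is halved. TGI marks complete inhibition of growth.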
# How the values were obtained:
# Assay in all cases: inhibition of tumour cell growth, NCI panel, 48 h
# 786-0 renal = tested on: 786-0 renal
# A498 renal = tested on: A498 renal
# A549 NSCLC = tested on: A549 NSCLC
# ACHN renal = tested on: ACHN renal
# BT-549 breast = tested on: BT-549 breast
# CAKI-1 renal = tested on: CAKI-1 renal
# CCRF-CEM leukemia = tested on: CCRF-CEM leukemia
# COLO 205 colon = tested on: COLO 205 colon
# DU-145 prostate = tested on: DU-145 prostate
# EKVX NSCLC = tested on: EKVX NSCLC
# HCC-2998 colon = tested on: HCC-2998 colon
# HCT-116 colon = tested on: HCT-116 colon
# HCT-15 colon = tested on: HCT-15 colon
# HOP-62 NSCLC = tested on: HOP-62 NSCLC
# HOP-92 NSCLC = tested on: HOP-92 NSCLC
# HS 578T breast = tested on: HS 578T breast
# HT29 colon = tested on: HT29 colon
# IGROV1 ovarian = tested on: IGROV1 ovarian
# K-562 leukemia = tested on: K-562 leukemia
# KM12 colon = tested on: KM12 colon
# LOX IMVI melanoma = tested on: LOX IMVI melanoma
# M14 melanoma = tested on: M14 melanoma
# MALME-3M melanoma = tested on: MALME-3M melanoma
# MCF7 breast = tested on: MCF7 breast
# MDA-MB-231 breast = tested on: MDA-MB-231 breast
# MDA-MB-435 = tested on: MDA-MB-435
# MOLT-4 leukemia = tested on: MOLT-4 leukemia
# NCI-H226 lung = tested on: NCI-H226 lung
# NCI-H460 lung = tested on: NCI-H460 lung
# NCI-H522 lung = tested on: NCI-H522 lung
# NCI/ADR-RES ovarian = tested on: NCI/ADR-RES ovarian
# OVCAR-3 ovarian = tested on: OVCAR-3 ovarian
# OVCAR-4 ovarian = tested on: OVCAR-4 ovarian
# OVCAR-5 ovarian = tested on: OVCAR-5 ovarian
# OVCAR-8 ovarian = tested on: OVCAR-8 ovarian
# PC-3 prostate = tested on: PC-3 prostate
# RPMI-8226 leukemia = tested on: RPMI-8226 leukemia
# SF-268 CNS = tested on: SF-268 CNS
# SF-295 CNS = tested on: SF-295 CNS
# SF-539 CNS = tested on: SF-539 CNS
# SK-MEL-2 melanoma = tested on: SK-MEL-2 melanoma
# SK-MEL-28 melanoma = tested on: SK-MEL-28 melanoma
# SK-MEL-5 melanoma = tested on: SK-MEL-5 melanoma
# SN12C renal = tested on: SN12C renal
# SNB-19 CNS = tested on: SNB-19 CNS
# SR leukemia = tested on: SR leukemia
# SW-620 colon = tested on: SW-620 colon
# T-47D breast = tested on: T-47D breast
# TK-10 renal = tested on: TK-10 renal
# U251 CNS = tested on: U251 CNS
# UACC-257 melanoma = tested on: UACC-257 melanoma
# UACC-62 melanoma = tested on: UACC-62 melanoma
# UO-31 renal = tested on: UO-31 renal
smiles,measurement,setting,value
COc1ccc2c(c1)C(=O)c1c-2c(NCCN(C)C)nc2ccccc12,GI50,786-0 renal,2650 nM
same,TGI,786-0 renal,9.1 µM
same,GI50,A498 renal,11.3 µM
same,TGI,A498 renal,24.6 µM
same,GI50,A549 NSCLC,946 nM
same,TGI,A549 NSCLC,4.49 µM
same,GI50,ACHN renal,1170 nM
same,TGI,ACHN renal,6.43 µM
same,GI50,BT-549 breast,5.99 µM
same,TGI,BT-549 breast,19.3 µM
same,GI50,CAKI-1 renal,373 nM
same,TGI,CAKI-1 renal,2480 nM
same,GI50,CCRF-CEM leukemia,561 nM
same,TGI,CCRF-CEM leukemia,11.5 µM
same,GI50,COLO 205 colon,4.51 µM
same,TGI,COLO 205 colon,19.3 µM
same,GI50,DU-145 prostate,2950 nM
same,TGI,DU-145 prostate,17.5 µM
same,GI50,EKVX NSCLC,3.06 µM
same,TGI,EKVX NSCLC,16.4 µM
same,GI50,HCC-2998 colon,2520 nM
same,TGI,HCC-2998 colon,13.4 µM
same,GI50,HCT-116 colon,15.1 µM
same,TGI,HCT-116 colon,28.3 µM
same,GI50,HCT-15 colon,2720 nM
same,TGI,HCT-15 colon,16.6 µM
same,GI50,HOP-62 NSCLC,14.3 µM
same,TGI,HOP-62 NSCLC,27.4 µM
same,GI50,HOP-92 NSCLC,65.8 nM
same,TGI,HOP-92 NSCLC,6.54 µM
same,GI50,HS 578T breast,9.28 µM
same,TGI,HS 578T breast,26.8 µM
same,GI50,HT29 colon,4.41 µM
same,TGI,HT29 colon,15.5 µM
same,GI50,IGROV1 ovarian,1860 nM
same,TGI,IGROV1 ovarian,7.14 µM
same,GI50,K-562 leukemia,2620 nM
same,TGI,K-562 leukemia,14.8 µM
same,GI50,KM12 colon,2940 nM
same,TGI,KM12 colon,23 µM
same,GI50,LOX IMVI melanoma,2010 nM
same,TGI,LOX IMVI melanoma,11.6 µM
same,GI50,M14 melanoma,15.8 µM
same,TGI,M14 melanoma,29.2 µM
same,GI50,MALME-3M melanoma,12.4 µM
same,TGI,MALME-3M melanoma,32.7 µM
same,GI50,MCF7 breast,2000 nM
same,TGI,MCF7 breast,12.2 µM
same,GI50,MDA-MB-231 breast,6.59 µM
same,TGI,MDA-MB-231 breast,19.9 µM
same,GI50,MDA-MB-435,5.06 µM
same,TGI,MDA-MB-435,20.4 µM
same,GI50,MOLT-4 leukemia,291 nM
same,TGI,MOLT-4 leukemia,1150 nM
same,GI50,NCI-H226 lung,16.2 µM
same,TGI,NCI-H226 lung,32.5 µM
same,GI50,NCI-H460 lung,671 nM
same,TGI,NCI-H460 lung,10.6 µM
same,GI50,NCI-H522 lung,6.92 µM
same,TGI,NCI-H522 lung,20.9 µM
same,GI50,NCI/ADR-RES ovarian,3.66 µM
same,TGI,NCI/ADR-RES ovarian,14.3 µM
same,GI50,OVCAR-3 ovarian,2290 nM
same,TGI,OVCAR-3 ovarian,9.34 µM
same,GI50,OVCAR-4 ovarian,12.2 µM
same,TGI,OVCAR-4 ovarian,36.3 µM
same,GI50,OVCAR-5 ovarian,4.23 µM
same,TGI,OVCAR-5 ovarian,16 µM
same,GI50,OVCAR-8 ovarian,496 nM
same,TGI,OVCAR-8 ovarian,5.53 µM
same,GI50,PC-3 prostate,2930 nM
same,TGI,PC-3 prostate,14.2 µM
same,GI50,RPMI-8226 leukemia,1210 nM
same,TGI,RPMI-8226 leukemia,4.53 µM
same,GI50,SF-268 CNS,2970 nM
same,TGI,SF-268 CNS,15.5 µM
same,GI50,SF-295 CNS,3.83 µM
same,TGI,SF-295 CNS,17.5 µM
same,GI50,SF-539 CNS,12.4 µM
same,TGI,SF-539 CNS,25.2 µM
same,GI50,SK-MEL-2 melanoma,15.7 µM
same,TGI,SK-MEL-2 melanoma,31 µM
same,GI50,SK-MEL-28 melanoma,13.9 µM
same,TGI,SK-MEL-28 melanoma,26.9 µM
same,GI50,SK-MEL-5 melanoma,6.47 µM
same,TGI,SK-MEL-5 melanoma,19.7 µM
same,GI50,SN12C renal,3.74 µM
same,TGI,SN12C renal,16 µM
same,GI50,SNB-19 CNS,3.28 µM
same,TGI,SNB-19 CNS,12.7 µM
same,GI50,SR leukemia,350 nM
same,TGI,SR leukemia,2660 nM
same,GI50,SW-620 colon,3.4 µM
same,TGI,SW-620 colon,14 µM
same,GI50,T-47D breast,14.8 µM
same,TGI,T-47D breast,34.6 µM
same,GI50,TK-10 renal,8.19 µM
same,TGI,TK-10 renal,28.8 µM
same,GI50,U251 CNS,2470 nM
same,TGI,U251 CNS,11.7 µM
same,GI50,UACC-257 melanoma,4.6 µM
same,TGI,UACC-257 melanoma,17.5 µM
same,GI50,UACC-62 melanoma,15.8 µM
same,TGI,UACC-62 melanoma,29.4 µM
same,GI50,UO-31 renal,9.98 µM
same,TGI,UO-31 renal,22 µM
